Experimental data from patent publication US11554110B2, “Pemafibrate dosing regimens” (Kowa Company, Ltd., priority 2017, dated 2023).

Columns and labels:
Type in all cases: in vivo, healthy adult subjects
[1] = Drug interaction study of pemafibrate with rifampicin (plasma pharmacokinetics of pemafibrate); conditions: for AUC(0-inf) / Cmax: human, plasma, po, 0.4 mg, geometric mean, oral, fasting
Protocol: A study was conducted to investigate the effect of rifampicin on the pharmacokinetics of pemafibrate in healthy adult subjects.
Subjects were orally administered on the following schedule. The administration of 0.4 mg of pemafibrate on Days 1 and 4 was carried out under fasting for at least 8 hours, and the fasting was maintained for 4 hours after the administration. • Day 1: Pemafibrate 0.4 mg alone • Day 4: A single dose of 0.4 mg of pemafibrate plus 600 mg of rifampicin • Days 5-6: Rifampicin 600 mg alone [Measurement]
(§1) Plasma concentration of pemafibrate was measured on blood samples from patients taken prior to and at 0.25, 0.5, 1, 1.5, 2, 3, 4, 6, 8, 10, 12, 14, 16, 24, 36, 48, 72 hours after administration of the drug on Days 1 and 4.
For estimates of the Cmax of pemafibrate and the area under the concentration-time curves (AUC0-inf) up to infinity hours, the geometric mean values and the ratios of the geometric mean values for concomitant administration to those for the single administration are shown in Table 1.

[2] = Drug interaction study of pemafibrate with clopidogrel (plasma pharmacokinetics of pemafibrate); conditions: for AUC(0-inf) / Cmax: human, plasma, po; for AUC0-inf ratio (concomitant use/single use) / Cmax ratio (concomitant use/single use): ratio of geometric means
Protocol: A study was conducted to investigate the effect of clopidogrel on the pharmacokinetics of pemafibrate in healthy adult subjects.
Subjects were orally administered on the following schedule. Pemafibrate administration on Days 1, 4, and 7 was carried out under fasting for at least 8 hours and maintained fasting for 4 hours after administration. • Day 1: Pemafibrate 0.4 mg alone • Day 4: A single dose of 0.4 mg of pemafibrate plus 391.5 mg of clopidogrel sulfate (equivalent to 300 mg of clopidogrel) • Day 5 to 6: Clopidogrel Sulfate 91.875 mg (equivalent to Clopidogrel 75 mg) alone • Day 7: A single dose of 0.4 mg of pemafibrate and 91.875 mg of clopidogrel sulfate (equivalent to 75 mg of clopidogrel) • Day 8 to 9: Clopidogrel Sulfate 91.875 mg (equivalent to Clopidogrel 75 mg) alone Measurement
Plasma concentration of pemafibrate was measured on blood samples from patients taken prior to and at 0.25, 0.5, 1, 1.5, 2, 3, 4, 6, 8, 10, 12, 14, 16, 24, 36, 48, 72 hours after administration of the drug on Days 1, 4, and 7.
For estimates of the Cmax of pemafibrate and the area under the concentration-time curves (AUC0-inf) up to infinity hours, the geometric mean values and the ratios of the geometric mean values of the single-dose concomitant administration (Day 4) to those for the single administration (Day 1) are shown in Table 4.
For the Cmax and AUC0-inf of pemafibrate, the geometric mean values and the ratios of the geometric mean values for concomitant administration after repeated administration of clopidogrel (day 7) to those for the single administration (day 1) are shown in Table 5.

[3] = Drug interaction study of pemafibrate with cyclosporine (plasma pharmacokinetics of pemafibrate); conditions: for AUC(0-inf) / Cmax: human, plasma, po, 0.4 mg, geometric mean, oral, fasting
Protocol: A study was conducted to investigate the effect of cyclosporine on the pharmacokinetics of pemafibrate in healthy adult subjects.
Subjects were orally administered on the following schedule. Drug administration was carried out under fasting for at least 8 hours, and fasting was maintained for 4 hours after administration. • Day 1: Pemafibrate 0.4 mg alone • Day 4: Combined single dose of 0.4 mg of pemafibrate and 600 mg of cyclosporine (Neoral® or its equivalent) [Measurement]
as §1
For estimates of the Cmax of pemafibrate and the area under the concentration-time curves (AUC0-inf) up to infinity hours, the geometric mean values and the ratios of the geometric mean values for concomitant administration to those for the single administration are shown in Table 3.

[4] = Drug interaction study of pemafibrate with clarithromycin (plasma pharmacokinetics of pemafibrate); conditions: for AUC(0-inf) / Cmax: human, plasma, po, 0.4 mg, geometric mean
Protocol: A study was conducted to investigate the effect of clarithromycin on the pharmacokinetics of pemafibrate in healthy adult subjects.
20 healthy adult subjects
Subjects were orally administered on the following schedule. The administration of 0.4 mg of pemafibrate on Days 1 and 9 was carried out under fasting for at least 8 hours, and the fasting was maintained for 4 hours after the administration. • Day 1: Pemafibrate 0.4 mg alone • Day 4 to 8: Clarithromycin 500 mg twice per day (1000 mg/day) • Day 9: Pemafibrate 0.4 mg single dose and Clarithromycin 500 mg twice per day (1000 mg/day) • Day 10 to 11: Clarithromycin 500 mg twice per day (1000 mg/day) Measurement
Plasma concentration of pemafibrate was measured on blood samples from patients collected prior to and at 0.25, 0.5, 1, 1.5, 2, 3, 4, 6, 8, 10, 12, 14, 16, 24, 36, 48, 72 hours after administration of 0.4 mg of pemafibrate on Days 1 and 9.
For estimates of the Cmax of pemafibrate and the area under the concentration-time curves (AUC0-inf) up to infinity hours, the geometric mean values and the ratios of the geometric mean values for concomitant administration to those for the single administration are shown in Table 2.

[5] = Day 1, pemafibrate 0.4 mg alone, read-out: AUC0-inf, single administration
[6] = Day 1, pemafibrate 0.4 mg alone, read-out: Cmax, single administration
[7] = ratio of geometric means, with rifampicin 600 mg vs pemafibrate alone
[8] = Day 4 (clopidogrel 300 mg single dose) vs Day 1
[9] = Day 7 (after repeated clopidogrel, 75 mg) vs Day 1
[10] = ratio of geometric means, with cyclosporine 600 mg vs pemafibrate alone
[11] = ratio of geometric means, with clarithromycin 1000 mg/day vs pemafibrate alone

AUC(0-inf) [1, 5]: 20.1 ng·h/mL | Cmax [1, 6]: 5.67 ng/mL | AUC(0-inf) ([1]; Day 4, single dose pemafibrate 0.4 mg plus rifampicin 600 mg, read-out: AUC0-inf, concomitant administration): 219 ng·h/mL | Cmax ([1]; Day 4, single dose pemafibrate 0.4 mg plus rifampicin 600 mg, read-out: Cmax, concomitant administration): 53.5 ng/mL | AUC0-inf ratio (concomitant use/single use) [1, 7]: 10.9009 | Cmax ratio (concomitant use/single use) [1, 7]: 9.436 | AUC0-inf, concomitant administration ([2]; geometric mean, Day 7, pemafibrate 0.4 mg plus clopidogrel sulfate 91.875 mg (equivalent to 75 mg of clopidogrel) after repeated administration of clopidogrel): 33.5611 ng·h/mL | AUC(0-inf) ([2]; 0.4 mg, geometric mean, Day 1, pemafibrate 0.4 mg alone, oral, fasting, read-out: AUC0-inf, single administration): 16.1 ng·h/mL | Cmax ([2]; 0.4 mg, geometric mean, Day 1, pemafibrate 0.4 mg alone, oral, fasting, read-out: Cmax, single administration): 4.77 ng/mL | Cmax ([2]; 0.4 mg, geometric mean, Day 4, single dose pemafibrate 0.4 mg plus clopidogrel sulfate 391.5 mg (equivalent to 300 mg of clopidogrel), read-out: Cmax, concomitant administration): 7.08 ng/mL | AUC(0-inf) ([2]; geometric mean, Day 4, single dose pemafibrate 0.4 mg plus clopidogrel sulfate 391.5 mg (equivalent to 300 mg of clopidogrel), read-out: AUC0-inf, concomitant administration): 38.1 ng·h/mL | Cmax ([2]; geometric mean, Day 7, pemafibrate 0.4 mg plus clopidogrel sulfate 91.875 mg (equivalent to 75 mg of clopidogrel) after repeated administration of clopidogrel, read-out: Cmax, concomitant administration): 6.39 ng/mL | AUC0-inf ratio (concomitant use/single use) [2, 8]: 2.3728 | Cmax ratio (concomitant use/single use) [2, 8]: 1.4855 | AUC0-inf ratio (concomitant use/single use) [2, 9]: 2.0876 | Cmax ratio (concomitant use/single use) [2, 9]: 1.3415 | AUC(0-inf) [3, 5]: 13.4 ng·h/mL | Cmax [3, 6]: 4.59 ng/mL | AUC(0-inf) ([3]; Day 4, combined single dose pemafibrate 0.4 mg and cyclosporine 600 mg, read-out: AUC0-inf, concomitant administration): 187 ng·h/mL | Cmax ([3]; Day 4, combined single dose pemafibrate 0.4 mg and cyclosporine 600 mg, read-out: Cmax, concomitant administration): 41.2 ng/mL | AUC0-inf ratio (concomitant use/single use) [3, 10]: 13.9947 | Cmax ratio (concomitant use/single use) [3, 10]: 8.9644 | AUC(0-inf) ([4]; Day 1, pemafibrate 0.4 mg alone, oral, fasting, read-out: AUC0-inf, single administration): 17 ng·h/mL | Cmax ([4]; Day 1, pemafibrate 0.4 mg alone, oral, fasting, read-out: Cmax, single administration): 4.67 ng/mL | AUC(0-inf) ([4]; Day 9, pemafibrate 0.4 mg single dose with clarithromycin 500 mg twice per day (given from Day 4), read-out: AUC0-inf, concomitant administration): 35.7 ng·h/mL | Cmax ([4]; Day 9, pemafibrate 0.4 mg single dose with clarithromycin 500 mg twice per day (given from Day 4), read-out: Cmax, concomitant administration): 11.3 ng/mL | AUC0-inf ratio (concomitant use/single use) [4, 11]: 2.0975 | Cmax ratio (concomitant use/single use) [4, 11]: 2.4246
Compound: CC[C@@H](Oc1cccc(CN(CCCOc2ccc(OC)cc2)c2nc3ccccc3o2)c1)C(=O)O [pemafibrate, (2R)-2-[3-({1,3-benzoxazol-2-yl[3-(4-methoxyphenoxy)propyl]amino}methyl)phenoxy]butanoic acid]
plasma concentration of pemafibrate, concomitant vs alone ([1]; concomitant administration with rifampicin compared with pemafibrate alone): increase in the plasma concentration of pemafibrate | plasma concentration of pemafibrate, concomitant vs alone ([2]; concomitant administration after repeated administration of clopidogrel (day 7) compared with pemafibrate alone (day 1)): increase in the plasma concentration of pemafibrate | plasma concentration of pemafibrate, concomitant vs alone ([2]; single-dose concomitant administration with clopidogrel (Day 4) compared with pemafibrate alone (Day 1)): increase in the plasma concentration of pemafibrate | plasma concentration of pemafibrate, concomitant vs alone ([3]; concomitant administration with cyclosporine compared with pemafibrate alone): increase in the plasma concentration of pemafibrate | plasma concentration of pemafibrate, concomitant vs alone ([4]; concomitant administration with clarithromycin compared with pemafibrate alone): increase in the plasma concentration of pemafibrate
